What all share (assay type): cell-based
One assay addresses T1, hNav1.2 (Homo sapiens, UniProt Q99250).
T1 construct: host or cells: HEK293
The experiment in a line: FLIPR membrane potential assay, hNav1.2. The following applies: for Selectivity for Nav1.7, Nav subtype 1.2: membrane potential assay. The method, then: (§1) HEK293 cells stably expressing hNav1.1, hNav1.2, hNav1.3, hNav1.4, hNav1.5, hNav1.6, hNav1.7 and […] (SB Drug Discovery, Glasgow, UK) were cultured in minimum essential media (MEM) containing 10% v/v FBS supplemented with L-glutamine (2 mM) and selection antibiotics G-418 (0.5 mg/mL), blasticidin (2-4 μg/mL) and zeocin (0.5 mg/mL) as recommended by the manufacturer. CHO cells stably expressing hNav1.8 in a tetracycline-inducible system (Chantest, OH, USA) were cultured in Ham's F-12 containing 10% v/v FBS and selection antibiotics as recommended by the manufacturer. To induce hNav1.8 expression, cells were cultured in the presence of tetracycline (1 μg/mL) for 24 h at 27° C. Cells were grown in a humidified 5% CO2 incubator at 37° C., grown to 70-80% confluence, and passaged every 3-4 days using TrypLE Express (Invitrogen).
(§2) Cells were plated 48 h before the assay on 384-well black walled imaging plates at a density of 10,000 to 15,000 cells per well and were loaded with red membrane potential dye for 30 min at 37° C. (Molecular Devices, CA, USA). One vial of bulk red membrane potential dye was reconstituted to a 10× stock solution with PSS and stored at −20° C. and diluted to 1× solution with PSS on the day of the assay. […] Changes in membrane potential were assessed using the FLIPR^TETRA (excitation 515 to 545 nm, emission 565 to 625 nm) every second for 300 s after adding agonists.

The target in a further assay is T2, hNav1.4 (Homo sapiens, UniProt P35499).
T2 construct: host or cells: HEK293
The experiment in a line: FLIPR membrane potential assay, hNav1.4. The settings on record: for Selectivity for Nav1.7, Nav subtype 1.4: membrane potential assay. As to the method: as §1, §2

For the next assay, the target named is T3, hNav1.1 (Homo sapiens, UniProt P35498).
T3 construct: host or cells: HEK293
The experiment in a line: FLIPR membrane potential assay, hNav1.1. As to the method: as §1, §2

The next assay concerns the target T4, hNav1.8 (Homo sapiens, UniProt Q9Y5Y9).
T4 construct: host or cells: HEK293
The experiment in a line: FLIPR membrane potential assay, hNav1.8. The following applies: for Selectivity for Nav1.7, Nav subtype 1.8: membrane potential assay. As to the method: as §1, §2

The next assay has as its target T5, hNav1.5 (Homo sapiens, UniProt Q14524).
T5 construct: host or cells: HEK293
Nature of the assay: FLIPR membrane potential assay, hNav1.5. The settings on record: for Selectivity for Nav1.7, Nav subtype 1.5: membrane potential assay. As to the method: as §1, §2

The target in the next assay is T6, hNav1.3 (Homo sapiens, UniProt Q9NY46).
T6 construct: host or cells: HEK293
The experiment in a line: FLIPR membrane potential assay, hNav1.3. The settings on record: for Selectivity for Nav1.7, Nav subtype 1.3: membrane potential assay. The method, then:
as §1, §2

The target in a further assay is T7, hNav1.6 (Homo sapiens, UniProt Q9UQD0).
T7 construct: host or cells: HEK293
Nature of the assay: FLIPR membrane potential assay, hNav1.6. The settings on record: for Selectivity for Nav1.7, Nav subtype 1.6: membrane potential assay. The method, then: as §1, §2

In a further assay the target is T8, hNav1.7 (Homo sapiens, UniProt Q15858).
T8 construct: host or cells: HEK293
Nature of the assay: FLIPR membrane potential assay, hNav1.7. The following applies: for Selectivity for Nav1.7, Nav subtype 1.7: membrane potential assay, reference subtype. As to the method: as §1, §2

Where a SMILES comes first, the peptide text is derived from it. Bridges are numbered along the chain shown (N, C = ends). Bounds are passed on as bounds.

T2 sequence (P35499 whole entry): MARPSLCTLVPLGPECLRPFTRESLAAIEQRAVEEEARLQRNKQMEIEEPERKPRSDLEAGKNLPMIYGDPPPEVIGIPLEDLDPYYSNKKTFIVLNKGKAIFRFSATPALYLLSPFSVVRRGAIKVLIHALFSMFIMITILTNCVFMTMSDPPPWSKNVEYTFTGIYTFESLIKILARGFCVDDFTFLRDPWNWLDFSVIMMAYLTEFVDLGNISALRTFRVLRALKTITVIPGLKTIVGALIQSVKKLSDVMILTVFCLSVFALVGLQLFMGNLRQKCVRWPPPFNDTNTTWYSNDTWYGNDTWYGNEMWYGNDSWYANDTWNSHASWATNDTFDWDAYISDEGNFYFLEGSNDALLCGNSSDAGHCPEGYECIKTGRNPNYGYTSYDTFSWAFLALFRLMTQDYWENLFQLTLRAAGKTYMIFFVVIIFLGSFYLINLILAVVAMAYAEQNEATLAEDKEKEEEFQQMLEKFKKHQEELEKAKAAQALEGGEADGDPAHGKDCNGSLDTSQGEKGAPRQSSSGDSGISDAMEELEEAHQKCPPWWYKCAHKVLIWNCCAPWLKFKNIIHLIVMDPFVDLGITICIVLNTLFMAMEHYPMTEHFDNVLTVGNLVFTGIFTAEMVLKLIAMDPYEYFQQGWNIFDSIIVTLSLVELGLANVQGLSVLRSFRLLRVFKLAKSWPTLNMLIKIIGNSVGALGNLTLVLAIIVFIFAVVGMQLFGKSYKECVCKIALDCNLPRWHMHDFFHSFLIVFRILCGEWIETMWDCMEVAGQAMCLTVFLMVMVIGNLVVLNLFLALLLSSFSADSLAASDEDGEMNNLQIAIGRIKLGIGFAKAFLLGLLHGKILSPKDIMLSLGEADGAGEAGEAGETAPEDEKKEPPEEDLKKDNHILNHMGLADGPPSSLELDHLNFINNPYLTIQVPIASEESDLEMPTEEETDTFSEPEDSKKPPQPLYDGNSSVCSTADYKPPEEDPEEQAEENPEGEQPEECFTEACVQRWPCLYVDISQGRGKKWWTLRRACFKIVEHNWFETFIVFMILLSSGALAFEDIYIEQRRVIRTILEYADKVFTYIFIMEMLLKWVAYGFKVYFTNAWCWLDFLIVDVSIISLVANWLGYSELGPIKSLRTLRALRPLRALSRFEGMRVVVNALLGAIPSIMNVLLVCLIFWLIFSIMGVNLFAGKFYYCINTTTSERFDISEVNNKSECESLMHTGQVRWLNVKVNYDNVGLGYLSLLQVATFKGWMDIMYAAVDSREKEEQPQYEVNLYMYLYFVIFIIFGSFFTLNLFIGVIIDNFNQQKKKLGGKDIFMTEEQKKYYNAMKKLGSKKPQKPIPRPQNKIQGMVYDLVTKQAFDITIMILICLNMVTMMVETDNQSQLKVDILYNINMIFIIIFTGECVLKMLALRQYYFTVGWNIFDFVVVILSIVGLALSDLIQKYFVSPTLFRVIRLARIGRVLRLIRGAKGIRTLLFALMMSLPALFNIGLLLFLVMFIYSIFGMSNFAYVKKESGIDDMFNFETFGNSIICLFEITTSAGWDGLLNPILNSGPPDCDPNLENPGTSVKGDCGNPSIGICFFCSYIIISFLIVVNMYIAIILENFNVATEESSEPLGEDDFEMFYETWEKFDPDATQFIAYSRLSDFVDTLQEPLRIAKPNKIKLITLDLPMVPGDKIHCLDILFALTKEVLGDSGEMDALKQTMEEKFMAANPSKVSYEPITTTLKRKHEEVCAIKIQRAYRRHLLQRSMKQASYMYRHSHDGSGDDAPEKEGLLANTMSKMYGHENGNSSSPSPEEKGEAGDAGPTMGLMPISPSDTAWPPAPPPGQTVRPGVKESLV
T5 sequence (Q14524 whole entry): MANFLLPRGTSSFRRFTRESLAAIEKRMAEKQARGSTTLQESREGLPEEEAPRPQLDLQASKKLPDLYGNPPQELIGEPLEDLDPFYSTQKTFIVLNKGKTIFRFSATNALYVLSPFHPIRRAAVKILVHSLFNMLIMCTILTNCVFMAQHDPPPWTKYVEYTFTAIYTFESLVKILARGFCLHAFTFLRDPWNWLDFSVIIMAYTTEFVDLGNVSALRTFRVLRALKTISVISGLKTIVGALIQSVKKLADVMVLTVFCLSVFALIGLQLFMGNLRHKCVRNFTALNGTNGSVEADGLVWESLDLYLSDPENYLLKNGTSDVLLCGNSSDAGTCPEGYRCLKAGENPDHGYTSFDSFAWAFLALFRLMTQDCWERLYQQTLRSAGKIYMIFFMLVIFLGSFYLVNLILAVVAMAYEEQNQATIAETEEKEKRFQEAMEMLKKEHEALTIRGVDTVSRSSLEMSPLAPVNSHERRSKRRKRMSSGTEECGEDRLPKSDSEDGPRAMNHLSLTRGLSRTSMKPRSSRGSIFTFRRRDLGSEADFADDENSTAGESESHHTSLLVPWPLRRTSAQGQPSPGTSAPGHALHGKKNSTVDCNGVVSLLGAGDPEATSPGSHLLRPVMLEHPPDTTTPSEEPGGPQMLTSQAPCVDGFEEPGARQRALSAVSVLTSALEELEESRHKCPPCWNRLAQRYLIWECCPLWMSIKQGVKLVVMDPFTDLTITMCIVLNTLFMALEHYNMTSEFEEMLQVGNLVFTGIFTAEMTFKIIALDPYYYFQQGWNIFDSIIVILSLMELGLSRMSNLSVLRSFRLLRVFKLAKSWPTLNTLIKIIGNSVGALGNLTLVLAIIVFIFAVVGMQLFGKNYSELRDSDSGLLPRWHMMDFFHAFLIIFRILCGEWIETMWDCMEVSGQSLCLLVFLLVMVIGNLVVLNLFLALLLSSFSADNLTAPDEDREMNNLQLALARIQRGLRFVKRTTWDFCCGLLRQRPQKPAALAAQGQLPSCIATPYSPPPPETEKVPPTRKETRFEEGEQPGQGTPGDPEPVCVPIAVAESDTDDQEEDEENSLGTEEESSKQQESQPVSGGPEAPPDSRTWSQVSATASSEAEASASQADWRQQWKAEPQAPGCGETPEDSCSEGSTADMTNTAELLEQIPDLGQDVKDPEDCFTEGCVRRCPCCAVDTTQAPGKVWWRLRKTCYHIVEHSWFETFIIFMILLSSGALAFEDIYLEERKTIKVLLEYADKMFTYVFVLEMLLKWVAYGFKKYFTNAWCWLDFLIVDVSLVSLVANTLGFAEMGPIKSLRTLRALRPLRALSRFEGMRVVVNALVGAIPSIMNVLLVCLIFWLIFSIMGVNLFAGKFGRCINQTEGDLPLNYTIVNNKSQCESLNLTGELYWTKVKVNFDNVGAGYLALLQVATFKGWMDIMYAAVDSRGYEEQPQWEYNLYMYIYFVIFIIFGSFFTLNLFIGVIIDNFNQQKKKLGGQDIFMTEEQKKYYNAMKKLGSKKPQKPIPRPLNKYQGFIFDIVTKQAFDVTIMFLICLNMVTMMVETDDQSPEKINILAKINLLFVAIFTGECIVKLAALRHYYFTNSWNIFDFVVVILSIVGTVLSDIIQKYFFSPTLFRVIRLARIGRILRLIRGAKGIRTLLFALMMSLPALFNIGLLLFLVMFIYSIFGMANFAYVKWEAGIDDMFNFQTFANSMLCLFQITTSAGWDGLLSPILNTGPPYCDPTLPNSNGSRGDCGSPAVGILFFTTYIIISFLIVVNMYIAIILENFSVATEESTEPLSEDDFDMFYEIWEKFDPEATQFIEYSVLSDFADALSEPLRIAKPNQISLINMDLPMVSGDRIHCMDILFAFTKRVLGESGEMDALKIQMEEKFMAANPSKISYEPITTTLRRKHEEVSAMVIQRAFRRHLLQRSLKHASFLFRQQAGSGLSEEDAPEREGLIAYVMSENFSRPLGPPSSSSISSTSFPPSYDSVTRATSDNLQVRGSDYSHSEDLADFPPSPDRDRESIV

Consider `CSCC[C@@H]1NC(=O)[C@H](Cc2ccc(O)cc2)NC(=O)[C@H](CCCNC(=N)N)NC(=O)[C@@H](NC(=O)[C@H](CC(=O)O)NC(C)=O)CSSC[C@@H]2NC(=O)[C@@H]3CSSC[C@@H](C(=O)N[C@@H](C)C(=O)N[C@@H](Cc4c[nH]c5ccccc45)C(=O)N[C@@H](CC(=O)O)C(=O)N[C@@H](Cc4ccccc4)C(=O)N[C@H](C(=O)N[C@@H](Cc4ccccc4)C(=O)N[C@H](C(=O)O)[C@@H](C)O)[C@@H](C)O)NC(=O)[C@H](Cc4ccc(O)cc4)NC(=O)[C@H](CCCCN)NC(=O)[C@H](CCSC)NC(=O)[C@H](CCCCN)NC(=O)[C@H](CCCNC(=N)N)NC(=O)[C@H](CCCCN)NC(=O)[C@H](CSSC[C@H](NC(=O)[C@H](CC(=O)O)NC(=O)CNC(=O)[C@H](Cc4ccccc4)NC1=O)C(=O)N[C@@H](CCC(=O)O)C(=O)N[C@@H](CCCCN)C(=O)N[C@@H](CC(=O)O)C(=O)N[C@@H](CCC(=O)O)C(=O)N[C@@H](CC(=O)O)C(=O)N3)NC(=O)CNC(=O)[C@H](CC(C)C)NC(=O)[C@H](Cc1c[nH]cn1)NC(=O)[C@H](CCCCN)NC2=O` [Ac-Pnc1a], for which the IC50 on hNav1.2 is 5 µM; on hNav1.4 it was 14 µM; at hNav1.1 it was 23 µM; at hNav1.8, over 30 µM; against hNav1.5, over 30 µM; at hNav1.3 it was 8 µM. For the same molecule, the IC50 on hNav1.6 amounted to 16 µM.

Consider `CSCC[C@@H]1NC(=O)[C@H](Cc2ccc(O)cc2)NC(=O)[C@H](CCCNC(=N)N)NC(=O)[C@@H](NC(=O)[C@@H](N)CC(=O)O)CSSC[C@@H]2NC(=O)[C@@H]3CSSC[C@@H](C(=O)N[C@@H](C)C(=O)N[C@@H](Cc4c[nH]c5ccccc45)C(=O)N[C@@H](CC(=O)O)C(=O)N[C@@H](Cc4ccccc4)C(=O)N[C@H](C(=O)N[C@@H](Cc4ccccc4)C(=O)N[C@H](C(N)=O)[C@@H](C)O)[C@@H](C)O)NC(=O)[C@H](Cc4ccc(O)cc4)NC(=O)[C@H](CCCCN)NC(=O)[C@H](CCSC)NC(=O)[C@H](CCCCN)NC(=O)[C@H](CCCNC(=N)N)NC(=O)[C@H](CCCCN)NC(=O)[C@H](CSSC[C@H](NC(=O)[C@H](CC(=O)O)NC(=O)CNC(=O)[C@H](Cc4ccccc4)NC1=O)C(=O)N[C@@H](CCC(=O)O)C(=O)N[C@@H](CCCCN)C(=O)N[C@@H](CC(=O)O)C(=O)N[C@@H](CCC(=O)O)C(=O)N[C@@H](CC(=O)O)C(=O)N3)NC(=O)CNC(=O)[C@H](CC(C)C)NC(=O)[C@H](Cc1c[nH]cn1)NC(=O)[C@H](CCCCN)NC2=O` [Pnc1a-CONH2], for which the IC50 against hNav1.2 was 3 µM; against hNav1.4, 16 µM; on hNav1.1, 8 µM; against hNav1.8, over 30 µM; against hNav1.5, over 30 µM; against hNav1.3, 7 µM. At hNav1.6, this molecule returned an IC50 of 20 µM.

With `CSCC[C@@H]1NC(=O)[C@H](Cc2ccc(O)cc2)NC(=O)[C@H](CCCNC(=N)N)NC(=O)[C@@H](NC(=O)[C@H](CC(=O)O)NC(=O)[C@@H](N)CO)CSSC[C@@H]2NC(=O)[C@@H]3CSSC[C@@H](C(=O)N[C@@H](C)C(=O)N[C@@H](Cc4c[nH]c5ccccc45)C(=O)N[C@@H](CC(=O)O)C(=O)N[C@@H](Cc4ccccc4)C(=O)N[C@H](C(=O)N[C@@H](Cc4ccccc4)C(=O)N[C@H](C(=O)O)[C@@H](C)O)[C@@H](C)O)NC(=O)[C@H](Cc4ccc(O)cc4)NC(=O)[C@H](CCCCN)NC(=O)[C@H](CCSC)NC(=O)[C@H](CCCCN)NC(=O)[C@H](CCCNC(=N)N)NC(=O)[C@H](CCCCN)NC(=O)[C@H](CSSC[C@H](NC(=O)[C@H](CC(=O)O)NC(=O)CNC(=O)[C@H](Cc4ccccc4)NC1=O)C(=O)N[C@@H](CCC(=O)O)C(=O)N[C@@H](CCCCN)C(=O)N[C@@H](CC(=O)O)C(=O)N[C@@H](CCC(=O)O)C(=O)N[C@@H](CC(=O)O)C(=O)N3)NC(=O)CNC(=O)[C@H](CC(C)C)NC(=O)[C@H](Cc1c[nH]cn1)NC(=O)[C@H](CCCCN)NC2=O` [S0-Pnc1a] (H-SDCRYMFGDCEKDEDCCKHLGCKRKMKYCAWDFTFT-OH; disulfide 3-17, 10-22, 16-29), on hNav1.7, the IC50 was 0.282 µM and the “Selectivity for Nav1.7, Nav subtype 1.7” value came to 1. For the same molecule, at hNav1.2, the half-inhibitory concentration (IC50) was determined as 3 µM and the “Selectivity for Nav1.7, Nav subtype 1.2” value stood at 10. Moreover, at hNav1.4, the IC50 stood at 11 µM and the “Selectivity for Nav1.7, Nav subtype 1.4” value was found to be 40. 9 µM corresponded to half-maximal inhibition on hNav1.1 (IC50). Moreover, the “Selectivity for Nav1.7, Nav subtype 1.1” value on hNav1.1 (membrane potential assay) is recorded as 32. Moreover, on hNav1.8, the IC50 is over 30 µM and the “Selectivity for Nav1.7, Nav subtype 1.8” value is on record as over 107. Further, on hNav1.5, the IC50 was over 30 µM and the “Selectivity for Nav1.7, Nav subtype 1.5” value is reported as over 107. At hNav1.3, the IC50 came out at 6 µM and the “Selectivity for Nav1.7, Nav subtype 1.3” value came out at 22. Further, on hNav1.6, the midpoint of inhibition, the IC50, lay at 19 µM and the “Selectivity for Nav1.7, Nav subtype 1.6” value was 68.

As to `CSCC[C@@H]1NC(=O)[C@H](Cc2ccc(O)cc2)NC(=O)[C@H](CCCNC(=N)N)NC(=O)[C@@H](NC(=O)[C@@H](N)CC(=O)O)CSSC[C@@H]2NC(=O)[C@@H]3CSSC[C@@H](C(=O)N[C@@H](C)C(=O)N[C@@H](Cc4c[nH]c5ccccc45)C(=O)N[C@@H](CC(=O)O)C(=O)N[C@@H](Cc4ccccc4)C(=O)N[C@H](C(=O)N[C@@H](Cc4ccccc4)C(=O)N[C@H](C(=O)O)[C@@H](C)O)[C@@H](C)O)NC(=O)[C@H](Cc4ccc(O)cc4)NC(=O)[C@H](CCCCN)NC(=O)[C@H](CCSC)NC(=O)[C@H](CCCCN)NC(=O)[C@H](CCCNC(=N)N)NC(=O)[C@H](CCCCN)NC(=O)[C@H](CSSC[C@H](NC(=O)[C@H](CC(=O)O)NC(=O)CNC(=O)[C@H](Cc4ccccc4)NC1=O)C(=O)N[C@@H](CCC(=O)O)C(=O)N[C@@H](CCCCN)C(=O)N[C@@H](CC(=O)O)C(=O)N[C@@H](CCCCN)C(=O)N[C@@H](CC(=O)O)C(=O)N3)NC(=O)CNC(=O)[C@H](CC(C)C)NC(=O)[C@H](Cc1c[nH]cn1)NC(=O)[C@H](CCCCN)NC2=O` [[E13K]Pnc1a] (H-DCRYMFGDCEKDKDCCKHLGCKRKMKYCAWDFTFT-OH; disulfide 2-16, 9-21, 15-28), the “Selectivity for Nav1.7, Nav subtype 1.7” value on hNav1.7 came out at 1. On hNav1.2, the IC50 worked out at 0.378 µM and the “Selectivity for Nav1.7, Nav subtype 1.2” value is reported as 4. On hNav1.4, the IC50 was determined as 2 µM and the “Selectivity for Nav1.7, Nav subtype 1.4” value was determined as 27. Besides, at hNav1.8, the IC50 is over 30 µM and the “Selectivity for Nav1.7, Nav subtype 1.8” value is on record as over 300. Moreover, at hNav1.5, the IC50 is over 30 µM and the “Selectivity for Nav1.7, Nav subtype 1.5” value was over 300. Further, at hNav1.3, inhibition was half-maximal at 6 µM (IC50) and the “Selectivity for Nav1.7, Nav subtype 1.3” value is reported as 66. For the same molecule, on hNav1.6, inhibition was half-maximal at 1 µM (IC50) and the “Selectivity for Nav1.7, Nav subtype 1.6” value turned out to be 14.

Usually IC50 stands for the concentration that inhibits the measured activity by half. Low values mean inhibition by little substance, high ones a need for much substance.

The values are drawn from patent US10662229B2, “Spider venom peptides and methods of use for modulating sodium channels” (priority 2016, dated 2020).
